Structures can show the parent of a compound that is named as a salt.
Molecular target: T1, human vasopressin V1b receptor (Homo sapiens, UniProt P47901)
T1 construct: expressed in transfected cells; host or cells: CHO-K1 (cell line hV1b-3H2_CHO), membrane preparation
T1 sequence (P47901 1-424): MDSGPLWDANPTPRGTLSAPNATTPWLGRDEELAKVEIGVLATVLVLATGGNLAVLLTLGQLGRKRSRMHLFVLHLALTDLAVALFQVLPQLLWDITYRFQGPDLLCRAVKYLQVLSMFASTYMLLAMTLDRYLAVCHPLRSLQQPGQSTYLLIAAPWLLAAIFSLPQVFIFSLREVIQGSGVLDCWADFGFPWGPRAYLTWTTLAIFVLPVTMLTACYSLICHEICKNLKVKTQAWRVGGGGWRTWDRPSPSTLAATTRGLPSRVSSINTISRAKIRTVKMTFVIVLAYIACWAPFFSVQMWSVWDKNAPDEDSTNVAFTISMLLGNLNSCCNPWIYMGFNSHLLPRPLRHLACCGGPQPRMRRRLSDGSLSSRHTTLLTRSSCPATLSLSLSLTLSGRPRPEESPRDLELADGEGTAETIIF
Assay: Vasopressin V1b receptor binding assay
Settings: membranes from CHO-K1 cells with stably expressed human V1b receptors, displacement of 1.5 nM 3H-AVP
Procedure: Vasopressin V1b Receptor Binding Assay:
The test substances were dissolved in a concentration of 10^−2 M in DMSO (dimethyl sulfoxide) and further diluted to 5×10^−4 M to 5×10^−9 M in DMSO. This series of DMSO predilutions was diluted 1:10 with assay buffer. The substance concentration was again diluted 1:5 in the assay mixture (2% DMSO in the mixture).
The membrane pellet was again homogenized and centrifuged as described and then taken up in 50 mM Tris-HCl, pH 7.4, homogenized and stored in aliquots frozen in liquid nitrogen at −190° C.
The incubation buffer was: 50 mM Tris, 10 mM MgCl2, 0.1% BSA, pH 7.4.
The nonspecific binding was determined with 1 uM AVP (Bachem # H1780). All determinations were carried out as triplicate determinations. After incubation (60 minutes at room temperature), the free radioligand was removed by vacuum filtration (Skatron cell harvester 7000) through Whatman GF/B glass fiber filter mats, and the filters were transferred into scintillation vials. The liquid scintillation measurement took place in a Tricarb model 2000 or 2200CA instrument (Packard). Conversion of the measured cpm into dpm was carried out with the aid of a standard quench series.
The binding parameters were calculated by nonlinear regression in SAS.

SMILES | Ki
COc1ccc(S(=O)(=O)N2C(=O)C(c3ccc(CN4CCCCC4)cc3OC)(N3CCC[C@H]3C(=O)N(C)C)c3cc(Cl)ccc32)c(OC)c1 (single isomer, unassigned) [Example 8] | 1 to 10 nM
COc1ccc(S(=O)(=O)N2C(=O)C(c3ccc(CN4CCOCC4)cc3OC)(N3CCC[C@H]3C(=O)N(C)C)c3cc(Cl)ccc32)c(OC)c1 (single isomer, unassigned) [Example 10] | 10 to 100 nM
COc1ccc(S(=O)(=O)N2C(=O)C(c3cccc(CN(C)C)c3)(N3C[C@H](O)C[C@H]3C(=O)N(C)C)c3cc(Cl)ccc32)c(OC)c1 (single isomer, unassigned) [Example 16] | 1 to 10 nM
COc1ccc(S(=O)(=O)N2C(=O)C(c3ccc(CN4CCCC4)cc3OC)(N3CCC[C@H]3C(=O)N(C)C)c3cc(Cl)ccc32)c(OC)c1 (stereo partly drawn) [Example 1, (S)-1-[5-Chloro-1-(2,4-dimethoxybenzenesulfonyl)-3-(2-methoxy-4-pyrrolidin-1-yl-methylphenyl)-2-oxo-2,3-dihydro-1H-indol-3-yl]-pyrrolidine-2-dimethylcarboxamide, trifluoroacetic acid salt] | < 1 nM
COc1cc(CN2CCCC2)ccc1C1(N2CCC[C@H]2C(=O)N(C)C)C(=O)N(S(=O)(=O)c2ccc(F)cc2)c2ccc(Cl)cc21 (stereo partly drawn) [Example 3, (S)-1-[5-Chloro-1-(4-fluorobenzenesulfonyl)-3-(2-methoxy-4-pyrrolidin-1-ylmethyl-phenyl)-2-oxo-2,3-dihydro-1H-indol-3-yl]pyrrolidine-2-dimethylcarboxamide, trifluoroacetic acid salt] | 1 to 10 nM
COc1cc(CN2CCCC2)ccc1C1(N2CCC[C@H]2C(=O)N(C)C)C(=O)N(S(=O)(=O)c2ccc(Cl)cc2)c2ccc(Cl)cc21 (stereo partly drawn) [Example 4, (S)-1-[5-Chloro-1-(4-chlorobenzenesulfonyl)-3-(2-methoxy-4-pyrrolidin-1-ylmethyl-phenyl)-2-oxo-2,3-dihydro-1H-indol-3-yl]pyrrolidine-2-dimethylcarboxamide, trifluoroacetic acid salt] | < 1 nM
COc1cc(CN2CCCC2)ccc1C1(N2CCC[C@H]2C(=O)N(C)C)C(=O)N(S(=O)(=O)c2ccc(C#N)cc2)c2ccc(Cl)cc21 (stereo partly drawn) [Example 5, (S)-1-[5-Chloro-1-(4-cyanobenzenesulfonyl)-3-(2-methoxy-4-pyrrolidin-1-ylmethyl-phenyl)-2-oxo-2,3-dihydro-1H-indol-3-yl]pyrrolidine-2-dimethylcarboxamide, trifluoroacetic acid salt] | < 1 nM
COc1ccc(S(=O)(=O)N2C(=O)C(c3ccc(CN4CCCC4)cc3)(N3C[C@H](O)C[C@H]3C(=O)N(C)C)c3cc(Cl)ccc32)c(OC)c1 (stereo partly drawn) [Example 6, (2S,4R)-1-[5-Chloro-1-(2,4-dimethoxybenzenesulfonyl)-2-oxo-3-(4-pyrrolidin-1-yl-methylphenyl)-2,3-dihydro-1H-indol-3-yl]-4-hydroxypyrrolidine-2-dimethylcarboxamide] | 10 to 100 nM
COc1ccc(S(=O)(=O)N2C(=O)C(c3ccc(CN(C)C)cc3OC)(N3CCC[C@H]3C(=O)N(C)C)c3cc(Cl)ccc32)c(OC)c1 (stereo partly drawn) [Example 7, (S)-1-[5-Chloro-1-(2,4-dimethoxybenzenesulfonyl)-3-(4-dimethylaminomethyl-2-methoxyphenyl)-2-oxo-2,3-dihydro-1H-indol-3-yl]-pyrrolidin-2-dimethylcarboxamide] | 1 to 10 nM
COc1ccc(S(=O)(=O)N2C(=O)C(c3ccc(CN4CCN(C)CC4)cc3OC)(N3CCC[C@H]3C(=O)N(C)C)c3cc(Cl)ccc32)c(OC)c1 (stereo partly drawn) [Example 9, (S)-1-{5-Chloro-1-(2,4-dimethoxybenzenesulfonyl)-3-[2-methoxy-4-(4-methyl-piperazin-1-ylmethyl)phenyl]-2-oxo-2,3-dihydro-1H-indol-3-yl}pyrrolidine-2-dimethylcarboxamide] | 1 to 10 nM
COc1ccc(S(=O)(=O)N2C(=O)C(c3ccc(CN4CCN(C(C)=O)CC4)cc3OC)(N3CCC[C@H]3C(=O)N(C)C)c3cc(Cl)ccc32)c(OC)c1 (stereo partly drawn) [Example 11, (S)-1-[3-[4-(4-Acetylpiperazin-1-ylmethyl)-2-methoxyphenyl]-5-chloro-1-(2,4-dimethoxy-benzenesulfonyl)-2-oxo-2,3-dihydro-1H-indol-3-yl]pyrrolidine-2-dimethylcarboxamide] | 10 to 100 nM
COc1ccc(S(=O)(=O)N2C(=O)C(c3ccc(CN(C)CCN(C)C)cc3OC)(N3CCC[C@H]3C(=O)N(C)C)c3cc(Cl)ccc32)c(OC)c1 (stereo partly drawn) [Example 12, (S)-1-[5-Chloro-1-(2,4-dimethoxybenzenesulfonyl)-3-(4-{[(2-dimethylaminoethyl)-methylamino]methyl}-2-methoxyphenyl)-2-oxo-2,3-dihydro-1H-indol-3-yl]pyrrolidine-2-dimethylcarboxamide] | 1 to 10 nM
COc1ccc(S(=O)(=O)N2C(=O)C(c3ccc(CN4CCCC4)cc3OC)(N(C)[C@@H](C)C(=O)N(C)C)c3cc(Cl)ccc32)c(OC)c1 (stereo partly drawn) [Example 14, (S)-2-{[5-Chloro-1-(2,4-dimethoxybenzenesulfonyl)-3-(2-methoxy-4-pyrrolidin-1-yl-methylphenyl)-2-oxo-2,3-dihydro-1H-indol-3-yl]methylamino}-N,N-dimethyl-propionamide] | 1 to 10 nM
COc1ccc(S(=O)(=O)N2C(=O)C(c3cc(CN(C)C)ccc3OC)(N3CCC[C@H]3C(=O)N(C)C)c3cc(Cl)ccc32)cc1 (stereo partly drawn) [Example 17, (S)-1-[5-Chloro-3-(5-dimethylaminomethyl-2-methoxyphenyl)-1-(4-methoxy-benzene-sulfonyl)-2-oxo-2,3-dihydro-1H-indol-3-yl]pyrrolidine-2-dimethylcarboxamide, trifluoroacetic acid salt] | < 1 nM
COc1ccc(S(=O)(=O)N2C(=O)C(c3cc(CN4CCCC4)ccc3OC)(N3CCC[C@H]3C(=O)N(C)C)c3cc(Cl)ccc32)cc1 (stereo partly drawn) [Example 18, (S)-1-[5-Chloro-1-(4-methoxybenzenesulfonyl)-3-(2-methoxy-5-pyrrolidin-1-yl-methylphenyl)-2-oxo-2,3-dihydro-1H-indol-3-yl]pyrrolidine-2-dimethylcarboxamide, trifluoroacetic acid salt] | < 1 nM
COc1ccc(S(=O)(=O)N2C(=O)C(c3cc(CN4CCCCC4)ccc3OC)(N3CCC[C@H]3C(=O)N(C)C)c3cc(Cl)ccc32)cc1 (stereo partly drawn) [Example 19, (S)-1-[5-Chloro-1-(4-methoxybenzenesulfonyl)-3-(2-methoxy-5-piperidin-1-ylmethyl-phenyl)-2-oxo-2,3-dihydro-1H-indol-3-yl]pyrrolidine-2-dimethylcarboxamide, trifluoroacetic acid salt] | < 1 nM
COc1ccc(S(=O)(=O)N2C(=O)C(c3cc(CN4CCN(C)CC4)ccc3OC)(N3CCC[C@H]3C(=O)N(C)C)c3cc(Cl)ccc32)cc1 (stereo partly drawn) [Example 20, (S)-1-{5-Chloro-1-(4-methoxybenzenesulfonyl)-3-[2-methoxy-5-(4-methylpiperazin-1-yl-methyl)phenyl]-2-oxo-2,3-dihydro-1H-indol-3-yl}pyrrolidine-2-dimethylcarboxamide, trifluoroacetic acid salt] | < 1 nM
COc1ccc(S(=O)(=O)N2C(=O)C(c3cc(CN4CCOCC4)ccc3OC)(N3CCC[C@H]3C(=O)N(C)C)c3cc(Cl)ccc32)cc1 (stereo partly drawn) [Example 21, (S)-1-[5-Chloro-1-(4-methoxybenzenesulfonyl)-3-(2-methoxy-5-morpholin-4-yl-methylphenyl)-2-oxo-2,3-dihydro-1H-indol-3-yl]pyrrolidine-2-dimethylcarboxamide, trifluoroacetic acid salt] | < 1 nM
COc1ccc(S(=O)(=O)N2C(=O)C(c3cc(CN(C)CCN(C)C)ccc3OC)(N3CCC[C@H]3C(=O)N(C)C)c3cc(Cl)ccc32)cc1 (stereo partly drawn) [Example 22, (S)-1-[5-Chloro-3-(5-{[(2-dimethylaminoethyl)methylamino]methyl}-2-methoxy-phenyl)-1-(4-methoxybenzenesulfonyl)-2-oxo-2,3-dihydro-1H-indol-3-yl]pyrrolidine-2-dimethylcarboxamide, trifluoroacetic acid salt] | < 1 nM
COc1ccc(S(=O)(=O)N2C(=O)C(c3cc(CN(C)CCCN(C)C)ccc3OC)(N3CCC[C@H]3C(=O)N(C)C)c3cc(Cl)ccc32)cc1 (stereo partly drawn) [Example 23, (S)-1-[5-Chloro-3-(5-{[(3-dimethylaminopropyl)methylamino]methyl}-2-methoxy-phenyl)-1-(4-methoxybenzenesulfonyl)-2-oxo-2,3-dihydro-1H-indol-3-yl]pyrrolidine-2-dimethylcarboxamide, trifluoroacetic acid salt] | < 1 nM

Source: US8691815B2, “Substituted oxindole derivatives, drugs containing said derivatives and the use thereof” (AbbVie Deutschland GmbH & Co. KG, priority 2005, dated 2014)
